Three compounds from ChEMBL document CHEMBL2401650, “Selective inhibition of human acetylcholinesterase by xanthine derivatives: in vitro inhibition and molecular modeling investigations” (Bioorg Med Chem Lett, 2013) can be followed below.

Assay [1] concerns the target Acetylcholinesterase (Homo sapiens, UniProt P22303). Kind of assay: Inhibition of human AChE using acetylthiocholine iodide as substrate treated 5 mins before substrate addition measured up to 4 mins by Ellman's method. In general terms: Ellman's reagent forms a yellow product with free thiols.
In assay [2] the target is Cholinesterase (Homo sapiens, UniProt P06276).
Sequence of Cholinesterase (P06276 whole entry): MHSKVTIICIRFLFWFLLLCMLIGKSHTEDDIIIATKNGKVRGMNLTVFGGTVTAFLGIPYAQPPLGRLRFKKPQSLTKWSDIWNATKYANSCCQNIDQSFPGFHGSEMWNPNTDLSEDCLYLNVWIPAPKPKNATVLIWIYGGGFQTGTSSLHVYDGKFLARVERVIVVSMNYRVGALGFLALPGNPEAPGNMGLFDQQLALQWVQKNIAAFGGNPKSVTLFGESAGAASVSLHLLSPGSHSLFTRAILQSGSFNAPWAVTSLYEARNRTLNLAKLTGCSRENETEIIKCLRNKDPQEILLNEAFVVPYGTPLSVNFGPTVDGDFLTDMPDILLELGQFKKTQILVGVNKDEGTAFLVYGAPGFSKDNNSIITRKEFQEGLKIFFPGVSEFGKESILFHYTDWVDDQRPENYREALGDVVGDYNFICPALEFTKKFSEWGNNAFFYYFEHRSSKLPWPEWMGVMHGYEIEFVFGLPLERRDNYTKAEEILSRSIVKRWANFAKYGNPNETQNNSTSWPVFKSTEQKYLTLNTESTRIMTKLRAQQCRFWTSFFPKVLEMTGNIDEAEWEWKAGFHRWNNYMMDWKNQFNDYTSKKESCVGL
Description: Inhibition of human BuChE using S-butyrylthiocholine iodide as substrate treated 5 mins before substrate addition measured up to 4 mins by Ellman's method

What is called IC50 is the point on the concentration scale where inhibition reaches its midpoint. High values mean a need for much substance, low ones inhibition by little substance.

SMILES strings stand for the structures. Bounds are passed on as bounds.

Sequence of Acetylcholinesterase (P22303 whole entry): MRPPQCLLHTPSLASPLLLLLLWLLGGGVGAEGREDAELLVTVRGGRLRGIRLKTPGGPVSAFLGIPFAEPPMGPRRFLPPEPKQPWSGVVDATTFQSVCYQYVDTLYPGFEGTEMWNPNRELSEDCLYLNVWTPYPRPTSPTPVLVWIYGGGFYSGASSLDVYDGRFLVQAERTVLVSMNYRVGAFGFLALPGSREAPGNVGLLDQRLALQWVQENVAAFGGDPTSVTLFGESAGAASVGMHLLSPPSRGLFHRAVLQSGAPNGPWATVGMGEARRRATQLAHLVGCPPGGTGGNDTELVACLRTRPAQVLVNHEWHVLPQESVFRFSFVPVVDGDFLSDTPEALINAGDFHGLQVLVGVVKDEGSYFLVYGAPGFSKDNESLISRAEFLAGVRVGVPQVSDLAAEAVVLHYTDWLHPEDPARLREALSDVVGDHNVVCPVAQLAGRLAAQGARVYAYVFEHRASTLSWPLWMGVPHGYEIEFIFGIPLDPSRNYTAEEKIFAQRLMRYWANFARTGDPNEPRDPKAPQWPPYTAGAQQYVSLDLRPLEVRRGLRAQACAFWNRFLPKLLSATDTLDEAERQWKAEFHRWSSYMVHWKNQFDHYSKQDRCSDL

For the compound `CCCn1cnc2c1c(=O)n(CCCCC(C)=O)c(=O)n2C` [PROPENTOFYLLINE], the figures for the IC50 in assay [1] and in assay [2] were 6.4 µM and over 50 µM, respectively.
Taken in the same sequence, the figures for `CC(=O)CCCCn1c(=O)c2c(ncn2C)n(C)c1=O` [PENTOXIFYLLINE] were 6.6 µM and over 50 µM.
As for `O=c1[nH]c(=O)c2[nH]cnc2[nH]1` [XANTHINE], the IC50 in assay [1] is 9 µM; in assay [2], over 50 µM.
